From patent US10233182B2, “Substituted spirocyclic inhibitors of autotaxin” (X-Rx, Inc., priority 2014, dated 2019)

The compounds below were run against Autotaxin (Homo sapiens (Human), UniProt Q13822) (assay: Autotaxin LPC Cascade Assay). Settings: Autotaxin 5 nM, LPC 100 μM, choline oxidase/HRP/Ampliflu Red fluorescence read-out, 2% DMSO, RT; read-out: IC50 ATX Activity.
Type: biochemical
How it was run: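 Choline liberated from LPC by autotaxin during 1 h, after a 10-min RT compound preincubation, was converted through choline oxidase/HRP to a fluorescent Ampliflu Red product.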
`CC(C)[C@@H](NC(=O)c1cc(C(F)(F)F)ccc1F)C(=O)N1CCC2(CC1)C(=O)N(C)C(=O)N2c1ccc2nn(C)cc2c1` [Example 13, (R)-2-Fluoro-N-(3-methyl-1-(3-methyl-1-(2-methyl-2H-indazol-5-yl)-2,4-dioxo-1,3,8-triazaspiro[4.5]decan-8-yl)-1-oxobutan-2-yl)-5-(trifluoromethyl)benzamide] was tested, and the IC50 was < 500 nM.
In the case of `Cc1cccc(C(=O)N[C@@H](C(=O)N2CCC3(CC2)C(=O)N(C)CN3c2cccc(B(O)O)c2)C(C)C)c1F` [Example 148, (R)-3-(8-(2-(2-Fluoro-3-methylbenzamido)-3-methylbutanoyl)-3-methyl-4-oxo-1,3,8-triazaspiro[4.5]decan-1-yl)phenylboronic Acid], the IC50 is reported as ≥ 1000 nM.
For `COc1ccc(N2C(=O)N(C)C(=O)C23CCN(C(=O)[C@H](NC(=O)c2cc(C4CC4)ccc2F)[C@@H](C)OC)CC3)cc1` [Example 49, 5-Cyclopropyl-2-fluoro-N-((2R,3R)-3-methoxy-1-(1-(4-methoxyphenyl)-3-methyl-2,4-dioxo-1,3,8-triazaspiro[4.5]decan-8-yl)-1-oxobutan-2-yl)benzamide], the IC50 was < 500 nM.
With `CC(C)[C@@H](NC(=O)c1ccccn1)C(=O)N1CCC2(CC1)C(=O)N(C)C(=O)N2c1ccc2[nH]ncc2c1` [Example 228, (R)—N-(1-(1-(1H-Indazol-5-yl)-3-methyl-2,4-dioxo-1,3,8-triazaspiro[4.5]decan-8-yl)-3-methyl-1-oxobutan-2-yl)picolinamide] the IC50 was ≥ 1000 nM.
`CN1C(=O)N(Cc2ccc3nccnc3c2)C2(CCN(C(=O)[C@H](NC(=O)c3cc(C(F)(F)F)ccc3F)C3CCC3)CC2)C1=O` [Example 110, (R)—N-(1-Cyclobutyl-2-(3-methyl-2,4-dioxo-1-(quinoxalin-6-ylmethyl)-1,3,8-triazaspiro[4.5]decan-8-yl)-2-oxoethyl)-2-fluoro-5-(trifluoromethyl)benzamide] was tested, and the IC50 was < 500 nM.
For `CN1CN(c2ccc(C(=O)O)cc2)C2(CCN(C(=O)[C@H](NC(=O)c3cc(C(F)(F)F)ccc3F)C(C)(C)C)CC2)C1=O` [Example 159], the IC50 was ≥ 1000 nM.
With `CCc1ccc(F)c(C(=O)N[C@@H](C(=O)N2CCC3(CC2)C(=O)N(C)[C@@H](C)N3c2ccc(C(=O)O)cc2)C(C)C)c1` (single isomer, unassigned) [Example 211] the IC50 was < 500 nM.
In the case of `Cc1cccc(C(=O)N[C@@H](C(=O)N2CCC3(CC2)C(=O)N(C)C(=O)N3c2ccccc2)C2CCCCC2)c1` [Example 1, (R)—N-(1-Cyclohexyl-2-(3-methyl-2,4-dioxo-1-phenyl-1,3,8-triazaspiro[4.5]decan-8-yl)-2-oxoethyl)-3-methylbenzamide], the IC50 is reported as < 500 nM.
`CCc1ccc(F)c(C(=O)N[C@@H](C(=O)N2CCC3(CC2)C(=O)N(C)C(=O)N3c2ccccc2)C(C)C)c1` [Example 39, (R)-5-Ethyl-2-fluoro-N-(3-methyl-1-(3-methyl-2,4-dioxo-1-phenyl-1,3,8-triazaspiro[4.5]decan-8-yl)-1-oxobutan-2-yl)benzamide] was tested, and the IC50 was < 500 nM.
With `COc1ccc(F)c(CN2C(=O)N(C)C(=O)C23CCN(C(=O)[C@H](NC(=O)c2cc(C(F)(F)F)ccc2F)C(C)C)CC3)c1` [Example 107, (R)-2-Fluoro-N-(1-(1-(2-fluoro-5-methoxybenzyl)-3-methyl-2,4-dioxo-1,3,8-triazaspiro[4.5]decan-8-yl)-3-methyl-1-oxobutan-2-yl)-5-(trifluoromethyl)benzamide] the IC50 was < 500 nM.
For `CC(C)[C@@H](NC(=O)c1cccc(C2CC2)c1)C(=O)N1CCC2(CC1)C(=O)N(C)CN2c1ccccc1` [Example 142, (R)-3-Cyclopropyl-N-(3-methyl-1-(3-methyl-4-oxo-1-phenyl-1,3,8-triazaspiro[4.5]decan-8-yl)-1-oxobutan-2-yl)benzamide], the IC50 was < 500 nM.
For `CC(C)[C@@H](NC(=O)c1cc(C(F)(F)F)ccc1F)C(=O)N1CCC2(CC1)C(=O)N(C)C(=O)N2Cc1ccc(C#N)cc1` [Example 88, (R)—N-(1-(1-(4-Cyanobenzyl)-3-methyl-2,4-dioxo-1,3,8-triazaspiro[4.5]decan-8-yl)-3-methyl-1-oxobutan-2-yl)-2-fluoro-5-(trifluoromethyl)benzamide], the IC50 was < 500 nM.
